Test [1] is described as follows: Inhibitory potency against Herpes Simplex virus ribonucleotide reductase. On the set-up: species or system Herpes simplex virus (type 1 / strain 17).
Test [2] can be described thus: Inhibitory potency against Varicella zoster virus ribonucleotide reductase.

The record followed here is ChEMBL document CHEMBL1128941, “Peptidomimetic inhibitors of herpes virus ribonucleotide reductase. Correlation between herpes simplex and varicella zoster virus” (Bioorg Med Chem Lett, 1996).

Starred links: 1 amine or outer side, 2 acyl side, 3 side chain; linkers in the order of their positions; H or OH if unused. Non-standard residues stand in square brackets, D forms with d. Residues, ends and D or L forms follow the SMILES beside them. *: point of attachment. Asp(3,3-(CH2)4) = N[C@H](C(=O)O)C1(C(=O)O)CCCC1; Dibenzylacetyl = O=C(C(Cc1ccccc1)Cc1ccccc1)*; Hydrocinnamoyl = O=C(CCc1ccccc1)*; tBuAla = CC(C)(C)C[C@H](N)C(=O)O; Tle = CC(C)(C)[C@H](N)C(=O)O; NMeV = CN[C@H](C(=O)O)C(C)C; NH(3-pentyl) = CCC(CC)N*; Pyrrolidide = C1CCN(*)C1; CO = O=C([*:1])[*:2]; X1 = CCC(CC)OC(=O)*; X2 = CCC(CC)CC(=O)*

Broadly, the IC50 is the concentration needed to halve the response being measured. The low end stands for greater potency in that assay, the high end for weaker potency in that assay.

As to `CC(C)C[C@H](NC(=O)[C@@H](NC(=O)[C@H](CC(=O)N1CCCC1)NC(=O)[C@@H](NC(=O)[C@@H](NC(=O)CCc1ccccc1)C(C)C)C(C)C)C1(C(=O)O)CCCC1)C(=O)O` (Hydrocinnamoyl-VVD(Pyrrolidide)[Asp(3,3-(CH2)4)]L-OH), the results for the IC50 in test [1] and in test [2] were 1 nM and 37 nM, respectively. `CC(C)C[C@H](NC(=O)[C@H](CC(=O)O)NC(=O)[C@H](CC(N)=O)NC(=O)[C@@H](NC(=O)[C@@H](NC(=O)CCc1ccccc1)C(C)C)C(C)C)C(=O)O`: the results for the IC50 in test [1] and in test [2] were 4000 nM and 15000 nM, respectively. In test [1], `CCC(CC)CC(=O)N[C@H](C(=O)N[C@@H](CC(=O)N1CCCC1)C(=O)N[C@@H](CC(=O)O)C(=O)N[C@@H](CC(C)C)C(=O)O)C(C)(C)C` (X2-[Tle]D(Pyrrolidide)DL-OH) registered an IC50 of 140 nM. As to `CCC(CC)NC(=O)C[C@H](C(=O)N[C@@H](CC(=O)N1CCCC1)C(=O)N[C@@H](CC(=O)O)C(=O)N[C@@H](CC(C)C)C(=O)O)C(C)(C)C`, the IC50 in test [1] came out at 5 nM; in test [2], 3500 nM. Consider `CC(C)C[C@H](NC(=O)[C@H](CC(=O)O)NC(=O)[C@H](CC(N)=O)NC(=O)[C@@H](NC(=O)[C@@H](NC(=O)[C@H](C)NC(=O)CNC(=O)[C@H](C)NC(=O)[C@@H](N)Cc1ccc(O)cc1)C(C)C)C(C)C)C(=O)O`, for which it took 25000 nM to reach half-maximal inhibition in test [1] (IC50).

H-YAGTVINDL-OH: half-maximal inhibition in test [1] (IC50) required 8000 nM. `CCC(CC)OC(=O)N[C@H](C(=O)N[C@@H](CC(=O)N1CCCC1)C(=O)N[C@@H](CC(=O)O)C(=O)N[C@@H](CC(C)C)C(=O)O)C(C)(C)C` (X1-[Tle]D(Pyrrolidide)DL-OH): the IC50 in test [1] came to 635 nM; in test [2], 7000 nM.

With `CC(C)C[C@H](NC(=O)[C@H](CC(=O)O)NC(=O)[C@H](CC(=O)N1CCCC1)NC(=O)[C@@H](NC(=O)[C@@H](NC(=O)C(Cc1ccccc1)Cc1ccccc1)C(C)C)C(C)C)C(=O)O` (Dibenzylacetyl-VVD(Pyrrolidide)DL-OH), the values for the IC50 in test [1] and in test [2] were 0.7 nM and 22 nM, respectively.

In the case of `CCC(CC)NC(=O)N[C@H](C(=O)N[C@@H](CC(=O)N1CCCC1)C(=O)N[C@@H](CC(=O)O)C(=O)N[C@@H](CC(C)C)C(=O)O)C(C)(C)C` ({NH(3-pentyl)-CO}-[Tle]D(Pyrrolidide)DL-OH), the IC50 is 3 nM in test [1] and 925 nM in test [2]. As to `CC(C)C[C@H](NC(=O)[C@H](CC(=O)O)NC(=O)[C@H](CC(=O)N1CCCC1)NC(=O)[C@@H](NC(=O)[C@@H](NC(=O)CCc1ccccc1)C(C)C)C(C)(C)C)C(=O)O` (Hydrocinnamoyl-V[Tle]D(Pyrrolidide)DL-OH), the results for the IC50 in test [1] and in test [2] were 4 nM and 123 nM, respectively. For `CC(C)C[C@H](NC(=O)[C@H](CC(=O)O)NC(=O)[C@H](CC(=O)N1CCCC1)NC(=O)[C@@H](NC(=O)[C@@H](NC(=O)CCc1ccccc1)C(C)C)C(C)C)C(=O)O` (Hydrocinnamoyl-VVD(Pyrrolidide)DL-OH) the same measures were 24 nM and 588 nM.

For the compound `CC(C)C[C@H](NC(=O)[C@H](CC(=O)O)NC(=O)[C@H](CC(=O)N1CCCC1)NC(=O)[C@@H](NC(=O)[C@H](C(C)C)N(C)C(=O)CCc1ccccc1)C(C)C)C(=O)O` (Hydrocinnamoyl-[NMeV]VD(Pyrrolidide)DL-OH), the IC50 in test [1] was 7.5 nM; in test [2] it was 210 nM. For `CC(C)[C@H](NC(=O)CCc1ccccc1)C(=O)N[C@H](C(=O)N[C@@H](CC(=O)N1CCCC1)C(=O)N[C@@H](CC(=O)O)C(=O)N[C@@H](CC(C)(C)C)C(=O)O)C(C)C` (Hydrocinnamoyl-VVD(Pyrrolidide)D[tBuAla]-OH), the IC50 in test [1] is 5 nM; in test [2], 9800 nM.
